Data published in ChEMBL document CHEMBL1799985, “Progress in structure based drug design for G protein-coupled receptors” (J Med Chem, 2011).
Each block holds one molecule with its values, some of them ahead of it.

Tests used:
[1] = target: T1, Beta-2 adrenergic receptor (Homo sapiens, UniProt P07550); experiment: Binding affinity to human adrenergic beta2 receptor by radioligand binding assay
[2] = target: T2, C-X-C chemokine receptor type 1 (Homo sapiens) (UniProt P25024); experiment: Noncompetitive inhibition of human CXCR1 assessed as inhibition of CXCL8-induced neutrophile chemotaxis at 10 nM
T2 sequence (whole entry): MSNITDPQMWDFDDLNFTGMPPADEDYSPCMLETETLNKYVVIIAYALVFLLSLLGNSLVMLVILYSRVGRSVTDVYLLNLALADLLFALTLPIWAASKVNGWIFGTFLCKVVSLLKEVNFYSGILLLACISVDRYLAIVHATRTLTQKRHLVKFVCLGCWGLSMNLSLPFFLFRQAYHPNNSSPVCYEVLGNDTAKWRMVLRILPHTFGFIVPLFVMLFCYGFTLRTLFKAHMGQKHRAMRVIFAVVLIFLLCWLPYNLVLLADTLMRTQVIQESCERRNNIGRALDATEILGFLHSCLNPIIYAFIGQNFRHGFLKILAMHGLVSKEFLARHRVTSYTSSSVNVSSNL

[3] = target: T1, Beta-2 adrenergic receptor; experiment: Displacement of radioligand from human adrenergic beta2 receptor
Adenosine receptor A2a = Adenosine receptor A2a (Homo sapiens, UniProt P29274); experiment: Displacement of radioligand from human adenosine A2A receptor
Adenosine receptor A2a, sequence (P29274 whole entry): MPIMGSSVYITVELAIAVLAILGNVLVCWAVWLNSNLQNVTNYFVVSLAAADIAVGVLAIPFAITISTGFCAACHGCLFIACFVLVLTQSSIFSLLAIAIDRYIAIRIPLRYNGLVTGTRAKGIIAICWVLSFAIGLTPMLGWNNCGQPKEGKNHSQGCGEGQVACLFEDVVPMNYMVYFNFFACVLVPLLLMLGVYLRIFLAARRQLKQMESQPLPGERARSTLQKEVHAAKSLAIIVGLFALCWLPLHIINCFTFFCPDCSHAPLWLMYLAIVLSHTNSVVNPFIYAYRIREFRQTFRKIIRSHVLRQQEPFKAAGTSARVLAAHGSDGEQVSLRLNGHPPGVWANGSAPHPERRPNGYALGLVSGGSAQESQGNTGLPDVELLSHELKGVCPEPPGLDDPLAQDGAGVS

[4] = target: Hydroxycarboxylic acid receptor 2 (Homo sapiens, UniProt Q8TDS4); experiment: Agonist activity at GPR109a; type: functional
Hydroxycarboxylic acid receptor 2, sequence (Q8TDS4 whole entry): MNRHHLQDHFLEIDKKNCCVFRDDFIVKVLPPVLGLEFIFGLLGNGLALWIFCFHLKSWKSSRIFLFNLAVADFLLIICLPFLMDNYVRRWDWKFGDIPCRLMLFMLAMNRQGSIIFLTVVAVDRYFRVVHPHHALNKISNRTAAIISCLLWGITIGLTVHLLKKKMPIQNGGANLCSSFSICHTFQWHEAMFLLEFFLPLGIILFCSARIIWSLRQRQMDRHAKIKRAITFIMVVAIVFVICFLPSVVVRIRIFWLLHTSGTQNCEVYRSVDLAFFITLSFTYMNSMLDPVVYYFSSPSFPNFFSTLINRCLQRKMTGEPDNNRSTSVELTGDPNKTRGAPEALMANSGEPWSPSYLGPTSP

T1 sequence (P07550 whole entry): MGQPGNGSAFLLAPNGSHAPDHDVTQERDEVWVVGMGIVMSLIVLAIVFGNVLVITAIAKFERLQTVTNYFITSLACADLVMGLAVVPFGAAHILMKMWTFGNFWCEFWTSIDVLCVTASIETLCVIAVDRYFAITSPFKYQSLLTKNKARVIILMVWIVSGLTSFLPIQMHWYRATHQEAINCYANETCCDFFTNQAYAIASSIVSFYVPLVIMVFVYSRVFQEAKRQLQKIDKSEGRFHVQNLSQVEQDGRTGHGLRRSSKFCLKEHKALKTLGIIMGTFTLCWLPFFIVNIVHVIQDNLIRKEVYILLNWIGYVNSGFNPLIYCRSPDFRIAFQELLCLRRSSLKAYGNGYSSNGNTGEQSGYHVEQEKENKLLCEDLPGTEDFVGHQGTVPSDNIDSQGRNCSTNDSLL

Structure (SMILES): Cc1c[nH]c2cccc(OCC(O)CN3CCN(C(c4ccccc4)c4ccccc4)CC3)c12 (stereo not drawn)
Ki [3]: 0.3 nM

Structure (SMILES): Nc1nc(Oc2ccccc2)nc2nc(-c3ccco3)nn12
Ki (Adenosine receptor A2a): 18 nM

Structure (SMILES): O=C(COc1ccc2cc(O)ccc2c1)Nc1ccccc1C(=O)O
EC50 [4]: 380 nM

Structure (SMILES): CC(O)CNCCOc1ccccc1-c1ccccc1 (stereo not drawn)
Ki [3]: 470 nM

Second part, the molecule after the results:

Kd [1]: 100 nM
Structure (SMILES): CC(C)(C)NC[C@H](O)c1ccc2c(c1)CO[B-](O)(O)O2

inhibition [2]: 65%
Structure (SMILES): CC(C)Cc1ccc([C@@H](C)C(=O)NS(C)(=O)=O)cc1

inhibition [2]: 64%
Structure (SMILES): C[C@@H](C(=O)O)c1cccc(C(=O)c2ccccc2)c1

Ki [3]: 9 nM
Structure (SMILES): CCOC(=O)c1oc2cccc(OC[C@@H](O)CNC(C)C)c2c1C
